Reference: article PMC8648872, “A host-directed macrocyclic peptide therapeutic for MDR gram negative bacterial infections” (Scientific Reports, 2021)
Entries after “also recorded” stand apart in the source; their conditions may differ. Where a SMILES comes first, the peptide text is derived from it. Bridges are numbered along the chain shown (N, C = ends).

Legend:
[1] = tested on: Kp-1705 (K. pneumoniae BAA-1705); experiment: Kp-1705 bacteremic sepsis, survival; type: in vivo, BALB/c mice; settings: for long term (≥ 28 days) survival: Kp-1705 i.p. in BALB/c mice
Description: (§1) BALB/c mice (Jackson Laboratories) 8–10 weeks of age were acclimated (3–5 to a cage for at least 5 days prior to infection) in a thermostatically controlled room with 12 h light/dark cycle. Cryopreserved K. pneumoniae cells were thawed and adjusted to a density of 6–10 × 10^8 CFU/ml, confirmed by plating on trypticase soy agar (TSA) plates. E. coli BAA-2340 was grown to log-phase in trypticase soy broth, pelleted, washed with PBS, and resuspended in PBS at 0.5–1 × 10^9 CFU/ml. Mice were infected by i.p. injection of 2–5 × 10^8 CFU of Kp-1705 or 3–6 × 10^7 CFU of E. coli BAA-2340 using a 28 g needle in a volume of 0.5 ml. Post-infection, mice were observed three times a day for at least 4 days and then daily for 28 days. Mice were euthanized when they became moribund. All experiments used both male and female mice and were repeated at least twice.

Kp-1705 [2] = experiment: Antibacterial activity of peptide-containing peritoneal fluid; type: cell-based, K. pneumoniae; settings: Kp-1705 incubated in PF containing 7.5 µg/ml peptide, 1 h, 37 °C, CFU plating
Description: (§2) Cryopreserved Kp-1705 was suspended in PBS to a density of ca. 1 × 10^9 CFU/ml, and incubated with saline or 1.25 µg/ml MTD12813 at room temperature for 1 h. Mice (n = 26) were then infected i.p. with 500 µl of saline- or MTD12813- pretreated Kp-1705, and a third cohort (n = 12) received 500 µl i.p. of 1.25 µg/ml MTD12813 immediately following infection with saline treated Kp-1705. Five mice from each cohort were euthanized 4 h p.i., and peritoneal lavage was collected for bacterial burden determination and cytospin preparation. In vitro antibacterial activity of MTD12813 (1.25 μg/ml) -treated cells (1 h; 37 °C) was determined by plating saline or peptide treated cells on TSA plates. Growth kinetics of saline and MTD12813-treated cells was determined by diluting samples from the 1 h incubation mixtures 1:40 into TSB and monitoring growth (620 nm) for 5.5 h at 37 °C. Antibacterial activity of MTD12813 in PF was determined by i.p. injection of naïve male BALB/c mice (n = 5 per group) with 1.25 mg/kg of MTD12813 or saline i.p. (10 ml/kg). […] Peritoneal fluid was clarified by centrifugation at 1200×g and an aliquot used to quantify MTD12813 by LC–MS/MS, as described above. Antimicrobial activity was determined by incubating PF (9:1 vol/vol) with Kp-1705 at a final density of 3 × 10^7 CFU/ml. […]

Kp-1705 [3] = experiment: Bacterial burden in Kp-1705 infected mice; type: in vivo, BALB/c mice; settings: 1.25 mg/kg i.p. 1 h p.i.
Description: as §1
Blood, peritoneal lavage fluid, and spleen homogenates were obtained from mice following by CO2 euthanasia. Citrate-anti-coagulated blood was collected by aseptic cardiac puncture. Peritoneal lavage was performed by injecting 3 ml of PBS into the peritoneal cavity, massaging the abdomen, and then collecting fluid aseptically through a minor incision in the abdominal wall. Spleen was surgically removed and homogenized in sterile PBS using Polytron PT10-35 homogenizer. Samples were serially diluted and plated in triplicate on TSA plates, incubated overnight at 37 °C and colonies counted.

plasma cytokines = experiment: Plasma cytokines in uninfected (sham infected) mice; type: in vivo, BALB/c mice; settings: single i.p. 1.25 mg/kg
Description: EDTA-anticoagulated blood was collected aseptically by terminal cardiac puncture and analyzed for complete blood cell count using an Element HT5 hematology analyzer (Heska). Blood plasma and clarified peritoneal lavage were prepared by two-step centrifugation described previously. Plasma cytokine levels were quantified using a mouse-specific MILLIPLEX MAP kit (Millipore Cat# MCYTMAG-70K) as described.
Supplemental Fig. 3. Transient stimulation of cytokines by MTD12813. Sham infected mice were injected i.p with PBS and treated i.p. 1 h later with 1.25 mg/kg MTD12813 (M) or saline (S). Four or 24 h post sham infection, animals were euthanized and plasma samples quantified by multiplex cytokine analysis. P values calculated using ANOVA with Uncorrected Fisher’s LSD comparing saline and […]

[4] = Peptide stability in human serum; type: in vitro ADME; settings: 90% (vol/vol) human serum, 37 °C, C18 RP-UPLC with PDA detector, read-out: peptide remaining intact
Description: MTD12813 (final concentration of 100 µg/ml) was added to either 90% human EDTA plasma or 90% human serum and incubated at 37 °C for 48 h. Samples were processed by addition of 10% HOAc and 5% ACN (final concentrations) at time 0 and 48 h, and MTD12813 was quantified by C18 RP-HLPC on an Acquity H-Class UPLC with an analytical PDA detector using Empower 3 software (Waters). All samples were performed with technical replicates and analyzed by UPLC in duplicate and the experiment repeated once. […] A time 0 h sample was collected, and the remaining suspension incubated at 37 °C for 24 h. Samples were processed by addition of 5% formic acid/5% acetonitrile, vortexed, and clarified at 22,000×g for 10 min. Supernatant MTD12813 was then quantified by LC–MS/MS as described in PK section above. All samples were performed with technical replicates and analyzed by LC–MS/MS in duplicate.

Kp-1705 [5] = experiment: Challenge with MTD12813-preincubated Kp-1705, survival; type: in vivo, BALB/c mice
Description: as §2

CC[C@H](C)[C@@H]1NC(=O)[C@@H]2CSSC[C@H](NC(=O)[C@H]([C@@H](C)CC)NC(=O)[C@@H]3CSSC[C@H](NC1=O)C(=O)N[C@@H](C(C)C)C(=O)NCC(=O)N[C@@H](CCCNC(=N)N)C(=O)NCC(=O)N3)C(=O)N[C@@H](C(C)C)C(=O)N[C@@H](CCCNC(=N)N)C(=O)N[C@@H](CCCNC(=N)N)C(=O)N[C@@H](CCCNC(=N)N)C(=O)N2 [MTD12813] (cyclo(CICVGRGCICVRRR); disulfide 1-10, 3-8)
long term (≥ 28 days) survival ([1]; single i.p. dose 1.25 mg/kg 1 h p.i.): 100% | long term (≥ 28 days) survival ([1]; single i.p. dose 5 mg/kg 1 h p.i.): 100% | long term survival, timing of treatment ([1]; Kp-1705 i.p., single i.p. 1.25 mg/kg 1 h after infection (+1 h)): survived long term | long term survival, timing of treatment ([1]; Kp-1705 i.p., single i.p. 1.25 mg/kg 1 h before infection (−1 h)): survived long term | long term survival, timing of treatment ([1]; Kp-1705 i.p., single i.p. 1.25 mg/kg 3 h after infection (+3 h), P = 3.9 × 10^–3): half | long term survival, timing of treatment ([1]; Kp-1705 i.p., single i.p. 1.25 mg/kg 3 h prior to infection (−3 h)): nearly equivalent efficacy | survival benefit versus saline ([1]; Kp-1705 i.p., single i.p. dose 0.5 mg/kg 1 h p.i., P = 1.1 × 10^–3): survival benefit was still statistically significant | bacterial killing in peritoneal fluid containing peptide (Kp-1705 [2]): no bacterial killing was observed; also recorded: no bactericidal activity | reduction of viable bacteria versus saline, PLF (Kp-1705 [3]; 4 h p.i.): 99.5% | reduction of viable bacteria versus saline, blood (Kp-1705 [3]; 4 h p.i.): 79.1% | reduction of viable bacteria versus saline, spleen (Kp-1705 [3]; 4 h p.i.): 70.4% | reduction of bacterial burden, PLF (Kp-1705 [3]; 24 h): 99.8% | reduction of bacterial burden, blood (Kp-1705 [3]; 24 h): 93.8% | reduction of bacterial burden, spleen homogenates (Kp-1705 [3]; 24 h): 94.4% | plasma IL-5, IL-6 and CXCL1 versus vehicle (plasma cytokines; 4 h collection point): significantly elevated | plasma IL-5, IL-6 and CXCL1 (plasma cytokines; 24 h): returned to baseline | remaining at 48 h, 100 µg/ml [4]: > 95% | survival, equal quantity of peptide given immediately following infection (Kp-1705 [5]; 0.5 ml of 1.25 µg/ml i.p. after saline-preincubated Kp-1705, n = 12): no statistically significant protection | survival after challenge with preincubated bacteria (Kp-1705 [5]; Kp-1705 preincubated 1 h with 1.25 µg/ml MTD12813, 500 µl i.p., n = 26): protected
